The target in this experiment is 5-hydroxytryptamine receptor 7 (Homo sapiens, UniProt P34969). Put plainly: Displacement of [3H] D-lysergic acid diethylamide from 5-HT7R (unknown origin) transfected in HEK293 cells incubated for 1.5 hrs by microbeta scintillation counter analysis.

Molecules are shown by their SMILES. pKi: −log10 of the molar value.

Chain of 5-hydroxytryptamine receptor 7 (P34969 whole entry): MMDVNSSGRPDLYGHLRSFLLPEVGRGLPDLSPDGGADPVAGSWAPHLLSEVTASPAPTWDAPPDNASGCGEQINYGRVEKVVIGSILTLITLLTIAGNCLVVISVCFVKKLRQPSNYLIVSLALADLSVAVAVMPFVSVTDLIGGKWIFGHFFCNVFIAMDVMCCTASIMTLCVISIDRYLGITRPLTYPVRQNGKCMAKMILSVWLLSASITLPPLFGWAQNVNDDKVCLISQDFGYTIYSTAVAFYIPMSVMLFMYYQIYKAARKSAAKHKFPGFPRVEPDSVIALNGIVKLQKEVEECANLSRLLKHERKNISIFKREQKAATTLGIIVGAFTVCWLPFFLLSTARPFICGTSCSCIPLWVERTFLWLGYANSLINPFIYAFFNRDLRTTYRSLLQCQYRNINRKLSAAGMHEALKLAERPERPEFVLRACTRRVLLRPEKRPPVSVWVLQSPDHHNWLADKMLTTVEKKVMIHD

Regarding `CCNCCc1ccc(Cl)c(-c2ccccc2OC)c1`, the negative-log Ki (pKi) is 8.80. The value for `CNCCc1ccc(Cl)c(-c2ccccc2OC)c1` was 8.55.

Usually pKi stands for −log10 of the Ki, conventionally taken in molar units. High values mean a low Ki, low ones a high Ki.

For the origin of these results see BindingDB's records for doi:10.1021/acs.jmedchem.1c00110 (Korea Institute of Science and Technology, 2021).
